US8501433B2, “Solvent for chromogenic substrate solution” (Pierce Biotechnology, Inc., priority 2002, dated 2013)

Assay: Dissolution of X-gal (and antibiotics) in non-toxic solvents
Format: physicochemical
Settings: non-toxic solvent solutions of the invention
Description: A combination of essential oil was extracted with chloroform in order to remove part of the oil phase, and create a semi-precipitated emulsion. For example, 20 ml of citrus extract, pine terpenoids, limonene oils and linseed oil was mixed with 20 ml of Chloroform by vigorously shaking in a 50 ml falcon tube. The resulting mix was let stand for approximately one day, and then the upper phase was transferred to a 15 ml falcon tube.

SMILES | dissolution in the same solutions as X-gal
CN(C)[C@@H]1C(=O)C(C(N)=O)=C(O)[C@@]2(O)C(=O)C3=C(O)c4c(O)cccc4[C@@](C)(O)[C@H]3C[C@@H]12 [Tetracyclin] | stable dissolution
O=C(N[C@H](CO)[C@H](O)c1ccc([N+](=O)[O-])cc1)C(Cl)Cl [Chloramphenicol] | stable dissolution
CC1(C)S[C@@H]2[C@H](NC(=O)[C@H](N)c3ccccc3)C(=O)N2[C@H]1C(=O)O [Ampicillin] | stable dissolution
